Experimental data reported in patent EP4268823A1, “COMPOUND FOR TREATING NEUROINFLAMMATION” (Universitätsklinikum Hamburg-Eppendorf, priority 2022, dated 2023).

Legend:
[1] = system: primary neuronal cultures; assay: Oxidative stress detection with CellROX green reagent after glutamate; format: cell-based, mouse; conditions: 20 µM glutamate 1 hour, UNC0642 pre-treatment
Procedure: (§1) For primary cortical cultures pregnant C57BL/6J, or G9afl/fl;Snap25-Cre mice were euthanized. To ensure comparability between genotypes, only embryos from heterozygous breeding's were used. Brainstem tissue of each embryo for genotyping was reserved and cortices were isolated, dissociated and cells were plated at a density of 1 × 10^5 cells per 1 cm^2 on poly-D-lysine-coated wells (5 µM Sigma-Aldrich, cat. no. A-003-M). If not stated otherwise, cells were maintained in neurobasal plus medium (supplemented with B27 plus, penicillin, streptomycin and L-glutamine; Gibco, cat. no. A3582901) at 37°C, 5% CO^2 and a relative humidity of 98%, and treated with 1 µM cytarabine (Sigma-Aldrich, cat. no. BP383) at 1 day in vitro (div) to inhibit glial cell proliferation. If no cytarabine was applied cells were maintained in PNBM medium (supplemented with neural cell survival factor, gentamycin and L-glutamine; Lonza). Throughout, cultures after 14-23 div were used for experiments. G9a inhibitor UNC0642 was used in a concentration of 1 µM and cultures were pre-treated 24 hours before further experimental procedures.
For the detection of oxidative stress in response to glutamate treatment, CellROX green reagent (Thermofisher) was used. […] Immunofluorescence of nuclear CellROX dye was quantified using Fiji (ImageJ).

[2] = system: primary cortical cultures; assay: RealTime-Glo cell viability assay, glutamate excitotoxicity; format: cell-based, mouse; conditions: G9a-deficient neurons from G9afl/fl;Snap25-Cre mice treated with UNC0642; readout not stated
Procedure: as §1, with “G9a inhibitor UNC0642 was used in a concentration of 1 µM and cultures were pre-treated 24 hours before further experimental procedures.” left out
RealTime-Glo (Promega, cat. no. G9711) MT cell viability substrate and NanoLuc Enzyme was mixed together, added to neuronal cultures and incubated for 5 hours for equilibration of luminescence signal before respective treatments were applied. Luminescence was acquired with a Spark 10M multimode microplate reader (Tecan) at 37°C and 5% CO2 every 30 min over a total time period of 24 hours. […]

[3] = system: ferroptosis-related genes; assay: mRNA expression of ferroptosis-related genes in erastin-treated hiPSC-neurons; format: cell-based; conditions: erastin-treated human neurons ± UNC0642
Excerpt: Human iPSCs (ZIPi013-B) (83) were maintained under feeder-free conditions on Matrigel (Corning)-coated plates in mTeSR1 medium (Stem Cell Technologies, cat. no. 85850). For neuronal induction, iPSCs were dissociated with Accutase and seeded at a density of 3 × 10^6 cells per well on AggreWell800 plates (10,000 cells per embryoid body (EB), Stem Cell Technologies) in SMADi Neural Induction Medium (SMADi NIM, Stem Cell Technologies, cat. no. 08582) supplemented with […] (Stem Cell Technologies, cat. no. 72302). On day 6, EBs were harvested and cultivated on Matrigel-coated plates in SMADi NIM for 12 days. Newly formed neural rosettes were manually picked and cultured for another 4 days. In order to release neural precursor cells (NPCs), neural rosettes were dissociated with Accutase and were maintained for several passages at high density in Neural Progenitor Medium (Stem Cell Technologies, cat. no. 05833) on Matrigel-coated plates. HiPSC-derived NPCs were differentiated into neurons as previously described (84, 85) with some modifications. Briefly, NPCs were seeded at a density of 1 × 10^5 cells per cm^2 in Neural Progenitor Medium onto Matrigel-coated plates. […]
RNA was extracted using RNeasy Mini Kit (Qiagen) and subsequently reverse-transcribed to complementary DNA with the RevertAid H Minus First Strand cDNA Synthesis Kit (Thermo Fisher Scientific) according to the manufacturer's instructions. Gene expression was analyzed by real-time PCR performed in an ABI Prism 7900 HT Fast Real-Time PCR System (Applied Biosystems) using TaqMan Gene Expression Assays (Thermo Fisher Scientific). Gene expression was calculated as 2-ΔCt relative to Tbp as the endogenous control.

glutathione = assay: GSH-Glo glutathione measurement after glutamate; format: cell-based, mouse; conditions: primary cortical neurons, glutamate 2 hours, UNC0642-treated
Procedure: as §1
GSH-Glo Glutathione assay (Promega) was used as described by the manufacturer. Primary cortical neurons were cultured in a 96-well plate and stimulated with glutamate for 2 hours. […] After 15 min, luminescence was detected at a Spark 10M multimode microplate reader (Tecan).

EAE mice = assay: Experimental autoimmune encephalomyelitis (EAE): clinical score and spinal cord histopathology

## COc1cc2c(NC3CCN(C(C)C)CC3)nc(N3CCC(F)(F)CC3)nc2cc1OCCCN1CCCC1 [UNC0642, 2-(4,4-difluoropiperidin-1-yl)-6-methoxy-N-[1-(propan-2-yl)piperidin-4-yl]-7-[3-(pyrrolidin-1-yl)propoxy]quinazolin-4-amine]
[1]
  generation of ROS (CellROX green): reduced the generation of ROS close to baseline levels
[2]
  additional rescue effect during glutamate stress: no additional rescue effect
[3]
  mRNA expression of GPX4: significant upregulation
  mRNA expression of Gclc: significant upregulation
  mRNA expression of SLC7A11: highly upregulated
glutathione
  glutathione levels: partial rescue of glutathione levels
EAE mice; 5 mg kg-1 body weight once daily intraperitoneally from symptom onset, vs. vehicle
  EAE disease course: significantly ameliorated EAE disease course
EAE mice; EAE, 5 mg kg-1 UNC0642
  body weight changes: not altered
  immune cell infiltration: not altered
  microglia activation: not altered
EAE mice; cervical spinal cord sections, chronic EAE, 5 mg kg-1 UNC0642 vs. vehicle
  4-hydroxy-2-nonenal (4-HNE) levels: significantly reduced
EAE mice; chronic EAE, day 30, 5 mg kg-1 UNC0642
  neuronal loss in the spinal cord ventral horn: reduced neuronal loss
